These results are taken from ChEMBL document CHEMBL5214883, “Comprehensive review for anticancer hybridized multitargeting HDAC inhibitors” (Eur J Med Chem, 2021).

One experiment addresses Histone deacetylase 3 (Homo sapiens, UniProt O15379). In words: Inhibition of HDAC3 (unknown origin).
The target in a further experiment is Histone deacetylase 11 (Homo sapiens, UniProt Q96DB2). Nature of the experiment: Inhibition of HDAC11 (unknown origin).
For a further experiment, the target named is Histone deacetylase 8 (Homo sapiens, UniProt Q9BY41). In words: Inhibition of HDAC8 (unknown origin).
Experiment [1] addresses T1, Protein deacetylase HDAC6 (Homo sapiens, UniProt Q9UBN7).
T1 sequence (Q9UBN7 whole entry): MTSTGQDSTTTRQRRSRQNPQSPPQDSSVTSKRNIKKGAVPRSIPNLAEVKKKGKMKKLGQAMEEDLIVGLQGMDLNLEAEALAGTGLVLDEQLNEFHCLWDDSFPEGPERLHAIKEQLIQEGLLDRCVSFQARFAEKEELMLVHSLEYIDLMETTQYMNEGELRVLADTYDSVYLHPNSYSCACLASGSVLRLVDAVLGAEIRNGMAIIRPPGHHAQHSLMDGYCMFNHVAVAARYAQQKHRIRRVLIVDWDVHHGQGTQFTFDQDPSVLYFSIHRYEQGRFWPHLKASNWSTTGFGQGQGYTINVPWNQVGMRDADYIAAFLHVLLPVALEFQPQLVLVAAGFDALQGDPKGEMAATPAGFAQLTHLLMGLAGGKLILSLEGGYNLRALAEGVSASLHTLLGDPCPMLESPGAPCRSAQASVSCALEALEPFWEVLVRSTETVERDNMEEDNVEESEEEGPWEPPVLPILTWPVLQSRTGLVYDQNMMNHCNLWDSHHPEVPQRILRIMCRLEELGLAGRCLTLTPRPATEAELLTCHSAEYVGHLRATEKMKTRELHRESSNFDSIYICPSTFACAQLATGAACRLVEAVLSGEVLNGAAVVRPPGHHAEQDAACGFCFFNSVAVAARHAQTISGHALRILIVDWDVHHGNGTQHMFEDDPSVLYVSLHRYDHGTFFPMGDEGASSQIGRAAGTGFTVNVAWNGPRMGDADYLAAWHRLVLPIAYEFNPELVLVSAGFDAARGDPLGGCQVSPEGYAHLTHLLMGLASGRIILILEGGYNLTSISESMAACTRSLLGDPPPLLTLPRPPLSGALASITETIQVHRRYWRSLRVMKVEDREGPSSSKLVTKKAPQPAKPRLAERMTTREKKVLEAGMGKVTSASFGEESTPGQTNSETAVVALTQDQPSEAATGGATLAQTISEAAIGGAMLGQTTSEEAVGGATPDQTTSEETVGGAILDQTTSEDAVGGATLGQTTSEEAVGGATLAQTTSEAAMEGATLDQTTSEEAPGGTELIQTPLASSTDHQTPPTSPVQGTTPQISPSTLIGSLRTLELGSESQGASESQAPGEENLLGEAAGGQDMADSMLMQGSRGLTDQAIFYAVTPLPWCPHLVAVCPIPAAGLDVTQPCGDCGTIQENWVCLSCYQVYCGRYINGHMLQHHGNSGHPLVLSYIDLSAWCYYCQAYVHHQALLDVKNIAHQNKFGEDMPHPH
In words: Inhibition of HDAC6 (unknown origin).

Sequence of Histone deacetylase 8 (Q9BY41 whole entry): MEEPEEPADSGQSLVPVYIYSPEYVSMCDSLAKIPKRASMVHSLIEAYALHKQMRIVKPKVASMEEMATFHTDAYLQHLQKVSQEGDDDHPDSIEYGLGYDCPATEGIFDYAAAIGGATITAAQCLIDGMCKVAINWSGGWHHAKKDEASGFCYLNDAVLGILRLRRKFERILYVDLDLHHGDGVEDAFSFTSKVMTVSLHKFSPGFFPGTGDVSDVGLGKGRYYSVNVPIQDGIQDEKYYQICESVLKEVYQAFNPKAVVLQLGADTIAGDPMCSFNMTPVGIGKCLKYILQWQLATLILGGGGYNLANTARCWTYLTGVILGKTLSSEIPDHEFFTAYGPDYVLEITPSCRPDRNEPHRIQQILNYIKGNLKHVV
Sequence of Histone deacetylase 11 (Q96DB2 whole entry): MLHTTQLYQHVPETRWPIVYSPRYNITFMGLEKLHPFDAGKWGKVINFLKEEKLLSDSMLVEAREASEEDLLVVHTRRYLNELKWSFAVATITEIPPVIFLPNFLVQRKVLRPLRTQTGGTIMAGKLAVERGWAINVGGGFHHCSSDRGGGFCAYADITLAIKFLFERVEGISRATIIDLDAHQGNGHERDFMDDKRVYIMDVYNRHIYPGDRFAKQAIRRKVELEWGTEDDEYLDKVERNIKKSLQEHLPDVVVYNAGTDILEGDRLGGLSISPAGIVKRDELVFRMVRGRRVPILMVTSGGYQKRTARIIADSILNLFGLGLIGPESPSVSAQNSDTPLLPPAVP
Sequence of Histone deacetylase 3 (O15379 whole entry): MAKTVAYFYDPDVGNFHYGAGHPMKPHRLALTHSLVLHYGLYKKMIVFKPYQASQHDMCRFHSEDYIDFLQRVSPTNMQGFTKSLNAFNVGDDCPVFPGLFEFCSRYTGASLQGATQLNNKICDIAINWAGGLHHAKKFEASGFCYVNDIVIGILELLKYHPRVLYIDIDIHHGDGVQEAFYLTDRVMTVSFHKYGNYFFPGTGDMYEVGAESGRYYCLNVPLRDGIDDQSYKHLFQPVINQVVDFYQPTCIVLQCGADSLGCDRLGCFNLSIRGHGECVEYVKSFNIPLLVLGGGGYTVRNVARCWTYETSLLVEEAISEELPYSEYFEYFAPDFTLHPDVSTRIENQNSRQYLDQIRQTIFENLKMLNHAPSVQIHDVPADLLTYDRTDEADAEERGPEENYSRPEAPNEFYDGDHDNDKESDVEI

Take `O=C(CCCCCOc1no[n+]([O-])c1S(=O)(=O)c1ccccc1)NO`: the IC50 (as a rule, the concentration needed to halve the response being measured) came out at 532 nM against Histone deacetylase 3, 608 nM at Histone deacetylase 11, 343 nM against Histone deacetylase 8 and 7400 nM in experiment [1].
